From ChEMBL document CHEMBL1201862, “PubChem BioAssay data set” (2004)
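Values below derive from 48-hour exposures of cells grown in 96-well plates, with endpoints linearly interpolated between the two concentrations bracketing the appropriate inhibition level. Abbreviation: GI50, concentration required for 50% inhibition of growth.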 Active and inactive are the calls of the source. No stated cut-off is given here; in the data, active = GI50 up to about 1.1 µM and inactive = higher.

Assays:
Assay in all cases: inhibition of tumour cell growth, NCI panel, 48 h
HL-60 = tested on: HL-60
SNB-75 = tested on: SNB-75
UACC-62 = tested on: UACC-62
UACC-257 = tested on: UACC-257
SK-OV-3 = tested on: SK-OV-3
CCRF-CEM = tested on: CCRF-CEM
LOX IMVI = tested on: LOX IMVI
NCI-H522 = tested on: NCI-H522
A549 = tested on: A549
NCI-H23 = tested on: NCI-H23
RPMI-8226 = tested on: RPMI-8226
SR = tested on: SR
M14 = tested on: M14
SF-268 = tested on: SF-268
DLD-1 = tested on: DLD-1
SK-MEL-28 = tested on: SK-MEL-28
NCI/ADR-RES = tested on: NCI/ADR-RES
PC-3 = tested on: PC-3
MDA-MB-435 = tested on: MDA-MB-435
BT-549 = tested on: BT-549

Structure (SMILES) | GI50 (HL-60) | GI50 (SNB-75) | GI50 (UACC-62) | GI50 (UACC-257) | GI50 (SK-OV-3) | GI50 (CCRF-CEM) | GI50 (LOX IMVI) | GI50 (NCI-H522) | GI50 (A549) | GI50 (NCI-H23) | GI50 (RPMI-8226) | GI50 (SR) | GI50 (M14) | GI50 (SF-268) | GI50 (DLD-1) | GI50 (SK-MEL-28) | GI50 (NCI/ADR-RES) | GI50 (PC-3) | GI50 (MDA-MB-435) | GI50 (BT-549)
COC(=O)C(C(=O)C(=O)Nc1ccc(C)cc1C)c1nc2ccc([N+](=O)[O-])cc2nc1O (centres undefined) | 34.8 µM (inactive) | > 100 µM (inactive) | > 100 µM (inactive) | > 100 µM (inactive) | > 100 µM (inactive) | 71.4 µM (inactive) | > 100 µM (inactive) | 60.3 µM (inactive) | > 100 µM (inactive) | > 100 µM (inactive) | 33.8 µM (inactive) | > 100 µM (inactive) | > 100 µM (inactive) | > 100 µM (inactive) | > 100 µM (inactive) | > 100 µM (inactive) |  |  |  | 
CC(=O)OCC1OC(n2c(=O)[nH]c(=O)c3nn[nH]c32)C(OC(C)=O)C(OC(C)=O)C1OC(C)=O (centres undefined) | > 100 µM (inactive) | 2.63 µM (inactive) | > 100 µM (inactive) | > 100 µM (inactive) | > 100 µM (inactive) | > 100 µM (inactive) | > 100 µM (inactive) | > 100 µM (inactive) | > 100 µM (inactive) | > 100 µM (inactive) | > 100 µM (inactive) | > 100 µM (inactive) | > 100 µM (inactive) | > 100 µM (inactive) | > 100 µM (inactive) | > 100 µM (inactive) |  |  |  | 
O=C(O)C12C3CCC(C3)C1(C(=O)O)C1CCC2C1 (centres undefined) | 39.6 µM (inactive) | > 100 µM (inactive) | > 100 µM (inactive) | > 100 µM (inactive) | > 100 µM (inactive) | 32.8 µM (inactive) | 23.7 µM (inactive) | 14.7 µM (inactive) | > 100 µM (inactive) | > 100 µM (inactive) | 23.3 µM (inactive) | 60.3 µM (inactive) | > 100 µM (inactive) | > 100 µM (inactive) | 24.7 µM (inactive) | > 100 µM (inactive) |  |  |  | 
O=C1C(Br)=C(Br)C(=O)c2ccc(=O)ccc21 | 8.47 µM (inactive) | 57.9 µM (inactive) | 19.5 µM (inactive) | 24.7 µM (inactive) | > 100 µM (inactive) | 2.88 µM (inactive) | 20.6 µM (inactive) | 2.67 µM (inactive) | 70.6 µM (inactive) | 21.2 µM (inactive) | 20 µM (inactive) | 26.1 µM (inactive) | 17.9 µM (inactive) | 30.3 µM (inactive) | 22.3 µM (inactive) | 27 µM (inactive) | 20 µM (inactive) | > 56.5 µM (inactive) | 18.7 µM (inactive) | 24.2 µM (inactive)
c1ccc2c(c1)nnn2CNc1ccc(N2CCCCC2)cc1 | 45.3 µM (inactive) | > 100 µM (inactive) | > 100 µM (inactive) | > 100 µM (inactive) | > 100 µM (inactive) | 77.1 µM (inactive) | > 100 µM (inactive) | > 100 µM (inactive) | > 100 µM (inactive) | > 100 µM (inactive) | 68.2 µM (inactive) | 62.7 µM (inactive) | > 100 µM (inactive) | > 100 µM (inactive) | > 100 µM (inactive) | > 100 µM (inactive) |  |  |  | 
Cc1ccc(C(=O)C(C)N)cc1 (centres undefined) | > 100 µM (inactive) | > 100 µM (inactive) | > 100 µM (inactive) | > 100 µM (inactive) | > 100 µM (inactive) | > 100 µM (inactive) | > 100 µM (inactive) | > 100 µM (inactive) | > 100 µM (inactive) | > 100 µM (inactive) | > 100 µM (inactive) | > 100 µM (inactive) | > 100 µM (inactive) | > 100 µM (inactive) | > 100 µM (inactive) | > 100 µM (inactive) |  |  |  | 
Cc1nc(N)nc(N)c1CCCCc1ccc(N)cc1 | 3.07 µM (inactive) | 11.9 µM (inactive) | 1.86 µM (inactive) | 5.07 µM (inactive) | 2.88 µM (inactive) | 3.01 µM (inactive) | 1.09 µM (active) | 4.26 µM (inactive) | 0.668 µM (active) | 4.37 µM (inactive) | 5.81 µM (inactive) | 1.28 µM (inactive) | 2.58 µM (inactive) | 0.995 µM (active) | 6.43 µM (inactive) | 10.1 µM (inactive) |  |  |  | 
O=C(c1ccco1)N(C(=S)N1CCN(c2ccccc2)CC1)c1ccccc1 | > 100 µM (inactive) | > 100 µM (inactive) | > 100 µM (inactive) | > 100 µM (inactive) | > 100 µM (inactive) | > 100 µM (inactive) | > 100 µM (inactive) | > 100 µM (inactive) | > 100 µM (inactive) | > 100 µM (inactive) | > 100 µM (inactive) | 72.4 µM (inactive) | > 100 µM (inactive) | > 100 µM (inactive) | > 100 µM (inactive) | > 100 µM (inactive) |  |  |  | 
COc1cc(C2(C)SCCCS2)cc(OC)c1OC | > 100 µM (inactive) | > 100 µM (inactive) | > 100 µM (inactive) | > 100 µM (inactive) | > 100 µM (inactive) | > 100 µM (inactive) | > 100 µM (inactive) | > 100 µM (inactive) | > 100 µM (inactive) | > 100 µM (inactive) | > 100 µM (inactive) | > 100 µM (inactive) | > 100 µM (inactive) | > 100 µM (inactive) | > 100 µM (inactive) | > 100 µM (inactive) |  |  |  | 
O=C(/C=C/c1ccc(OCCSCCCCCCCCCCSCCOc2ccc(/C=C/C(=O)c3ccc(Cl)cc3)cc2)cc1)c1ccc(Cl)cc1 | > 100 µM (inactive) | 30.8 µM (inactive) | > 80.9 µM (inactive) | > 100 µM (inactive) | 65.5 µM (inactive) | > 100 µM (inactive) | > 100 µM (inactive) | > 89.3 µM (inactive) | > 100 µM (inactive) | > 94.6 µM (inactive) | > 100 µM (inactive) | > 92.7 µM (inactive) | > 100 µM (inactive) | 76 µM (inactive) | > 100 µM (inactive) | > 100 µM (inactive) | > 100 µM (inactive) | > 100 µM (inactive) | > 100 µM (inactive) | > 100 µM (inactive)
NCCCC(N/C=C1/N=C(c2ccccc2)OC1=O)C(=O)O (centres undefined) | 63.4 µM (inactive) | > 100 µM (inactive) | > 100 µM (inactive) | > 100 µM (inactive) | > 100 µM (inactive) | 37.8 µM (inactive) | > 100 µM (inactive) | 40.8 µM (inactive) | > 100 µM (inactive) | > 100 µM (inactive) | 45.5 µM (inactive) | 87.3 µM (inactive) | > 100 µM (inactive) | > 100 µM (inactive) | 65.8 µM (inactive) | > 100 µM (inactive) |  |  |  | 
Nc1nc(SCc2ccccc2[N+](=O)[O-])c2[nH]cnc2n1 | > 53.6 µM (inactive) | > 42.5 µM (inactive) | 37.3 µM (inactive) | > 40.1 µM (inactive) | > 71 µM (inactive) | > 44.8 µM (inactive) | > 53.3 µM (inactive) | > 31.8 µM (inactive) | > 76.6 µM (inactive) | > 58.1 µM (inactive) | > 47.2 µM (inactive) | > 51.6 µM (inactive) | > 53.3 µM (inactive) | > 35.7 µM (inactive) | > 100 µM (inactive) | > 61.1 µM (inactive) | 26.7 µM (inactive) | 31.5 µM (inactive) | 36 µM (inactive) | 26.2 µM (inactive)
